How the values were obtained:
[1] = Organ distribution of 99mTc-labeled substances in rats 30 minutes after injection as a function of the amount of substance administered; type: in vivo; conditions: for Blood/ml / Kidneys / Liver / Lung / Remainder of body / Spleen / Thyroid / tissue uptake at 0.5 h: 30 min after injection, n = 3; for tissue uptake at 0.5 h: rat, femur, iv, 0.05 mg
Protocol: Assuming that 2-20 mg of TPB, ETP, PTP or phytate are administered to humans, and assuming that the weight of human is 80 kg, this corresponds to an amount administered of 25-250 μg/kg of body weight. Calculating on the basis of the body weight of rats weighing 200 g, then administration of 5-50 μg of TPB, ETP, PTP or phytate per rat exactly reflects the relationships.
Organ distribution of ^99m Tc TPB, ^99m TC ETP and ^99m Tc
phytate in rats (n = 3) 30
minutes after injection as a function of the amount of substance
(all data as a percentage of the amount of activity administered)

[2] = Example 6: distribution of activity over the organs in rats, PTP; type: in vivo, Sprague-Dawley rats; conditions: 30 min after injection; femoral vein; mean, n=6
Protocol: 3.5 g of 1,1,3,3-propanetetraphosphonic acid (PTP) are dissolved in 250 ml of double-distilled water, and the solution is adjusted to pH 6 with 1N NaOH. 210 mg of SnCl2.2H2 O, which are dissolved in 4.2 ml of 0.2N HCl, are added to this solution, and the pH is again adjusted to 6. The mixture is made up to 350 ml and individual 1 ml portions are prepared. (All the operations up to preparation of the individual portions are carried out under protective N2 gas.) The contents are frozen and freeze-dried. One unit contains 10 mg of PTP and 0.6 mg of SnCl2.2H2 O.
After storing for some weeks, the lyophilizate is dissolved in 10 ml of physiologic saline which contains 2 mCi of ^99m Tc-pertechnetate. After 30 min, Sprague-Dawley rats (n=6) weighing about 200 g each receive 0.1 ml of this solution injected into the femoral vein. The animals are sacrificed with ether 30 min after injection, and the distribution of the activity over the organs is determined. The mean figures below result (as percentage of the dose administered): […]

[3] = Comparison of 99mTc TPB, 99mTc PTP and 99mTc phytate after intravenous injection to dogs; type: in vivo; conditions: intravenous, dogs
[4] = Example 7: change in activity over the abdominal cavity followed with gamma camera (ROI technique); type: in vivo, dog (beagle); conditions: ear vein
Protocol: (§1) A labeling unit prepared as in Example 6 is made ready for injection with 5 ml of physiologic saline containing 10 mCi of ^99m Tc-pertechnetate. 1 ml of this solution is injected into the ear vein of a dog (beagle) weighing 18 kg, and the change in activity with time over the abdominal cavity is followed using a gamma camera by the ROI technique. It emerges that the uptake of activity by the liver is complete after about 10 min. The lung and kidneys are not imaged.

[5] = Example 7: elimination from the blood and renal excretion; type: in vivo, dog (beagle)
Protocol: as §1
The elimination from the blood and the renal excretion are also determined on the same animal. […] About 2.3% of the administered activity is excreted with the urine within the first 8 hours.

[6] = Accumulation of phosphoric acid derivatives investigated as technetium-99m diagnostic agents (bone, liver, RES); conditions: in vivo
Source text: It is possible to use phosphoric acid derivatives, particularly organic phosphonic acid derivatives, for bone scintigraphy. Many compounds have been investigated in the search for derivatives suitable as a technetium-99m diagnostic agent for bone.

[7] = second amount column (printed 50 μg)
[8] = third amount column (printed 50 μg)

O=P(O)(O)C(CC(P(=O)(O)O)P(=O)(O)O)P(=O)(O)O [PTP, propane-1,1,3,3-tetraphosphonic acid]
Blood/ml ([1]; (50 μg)): 0.055 percentage of the amount of ac
Kidneys ([1]; (50 μg)): 0.16 percentage of the amount of activity administered
Liver ([1]; (50 μg)): 91.8 percentage of the amount of activity administered
Lung ([1]; (50 μg)): 0.30 percentage of the amount of activity administered
Remainder of body ([1]; (50 μg)): 9.3 percentage of the amount of activity administered
Spleen ([1]; (50 μg)): 1.31 percentage of the amount of activity administered
Thyroid ([1]; (50 μg)): 0.05 percentage of the amount of activity administered
Blood/ml [1, 7]: 0.11 percentage of the amount of ac
Kidneys [1, 7]: 0.37 percentage of the amount of activity administered
Liver [1, 7]: 84.2 percentage of the amount of activity administered
Lung [1, 7]: 0.45 percentage of the amount of activity administered
Remainder of body [1, 7]: 16.0 percentage of the amount of activity administered
Spleen [1, 7]: 1.23 percentage of the amount of activity administered
Thyroid [1, 7]: 0.04 percentage of the amount of activity administered
Blood/ml [1, 8]: 0.086 percentage of the amount of ac
Kidneys [1, 8]: 0.38 percentage of the amount of activity administered
Liver [1, 8]: 82.7 percentage of the amount of activity administered
Lung [1, 8]: 0.43 percentage of the amount of activity administered
Remainder of body [1, 8]: 18.4 percentage of the amount of activity administered
Spleen [1, 8]: 1.10 percentage of the amount of activity administered
Thyroid [1, 8]: 0.05 percentage of the amount of activity administered
accumulation of activity in the kidneys, blood, femur and remainder of the body compared with phytate ([1]; all amounts of substance investigated): clearly lower than with phytate
suitability as diagnostic agent for visualization of RES-containing organs compared with 99mTc phytate ([1]; deduction from the animal experiments): unambiguously superior
tissue uptake at 0.5 h ([1]; (50 μg)): 0.052 %ID/g
tissue uptake at 0.5 h [1, 7]: 0.088 %ID/g
tissue uptake at 0.5 h [1, 8]: 0.089 %ID/g
Kidneys [2]: 0.067 percentage of the dose adminis
Liver [2]: 94.0 percentage of the dose adminis
Remainder of body [2]: 4.8 percentage of the dose adminis
Spleen [2]: 1.9 percentage of the dose adminis
Thyroid [2]: 0.034 percentage of the dose adminis
bladder + urine [2]: 0.023 percentage of the dose adminis
blood (1 ml) [2]: 0.083 percentage of the dose adminis
bone [2]: 0.7 percentage of the dose adminis
lungs [2]: 0.23 percentage of the dose adminis
excretion of activity with the urine ([3]; 30 min after injection): 0.05 % of the test dose
excretion of activity with the urine, compared with phytate [3]: markedly less
decrease in activity via the liver after accumulation in the liver is complete ([3]; compared with phytate): slower
time at which uptake of activity by the liver is complete [4]: about 10 min
clearance from the blood, half-life t1 ([5]; ear vein, first phase): 3.25 min
share of phase t1 in clearance from the blood ([5]; ear vein, first phase): 97%
clearance from the blood, half-life t2 ([5]; ear vein, second phase): 20.3 min
share of phase t2 in clearance from the blood ([5]; ear vein, second phase): 2.4%
clearance from the blood, half-life t3 ([5]; ear vein, third phase): 500 min
share of phase t3 in clearance from the blood ([5]; ear vein, third phase): 0.6%
administered activity excreted with the urine ([5]; within the first 8 hours): About 2.3 % of the administered activity
accumulation in bone [6]: virtually not at all
accumulation in the liver [6]: very preferentially accumulated in the liver
